Laboratory results reported in PubChem BioAssay (NCI).
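Values below derive from 48-hour exposures of cells grown in 96-well plates, with endpoints linearly interpolated between the two concentrations bracketing the appropriate inhibition level. Here, GI50 denotes the concentration required for 50% inhibition of growth. Definition used: TGI = concentration required for complete inhibition of growth.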

Tests used:
Test in all cases: growth of human tumour cells (NCI), 48 h
[1] = tested on: IGROV1 ovarian
[2] = tested on: MDA-N
[3] = tested on: HCT-116 colon
[4] = tested on: SF-295 CNS
[5] = tested on: SR leukemia
[6] = tested on: KM12 colon
[7] = tested on: T-47D breast
[8] = tested on: SNB-19 CNS
[9] = tested on: A498 renal
[10] = tested on: MCF7 breast
[11] = tested on: 786-0 renal
[12] = tested on: HT29 colon
[13] = tested on: COLO 205 colon
[14] = tested on: OVCAR-3 ovarian
[15] = tested on: MALME-3M melanoma
[16] = tested on: NCI/ADR-RES ovarian
[17] = tested on: EKVX NSCLC
[18] = tested on: HOP-92 NSCLC
[19] = tested on: NCI-H23 lung
[20] = tested on: SF-268 CNS
[21] = tested on: A549 NSCLC
[22] = tested on: SN12C renal
[23] = tested on: SK-OV-3 ovarian
[24] = tested on: MDA-MB-231 breast
[25] = tested on: SK-MEL-28 melanoma
[26] = tested on: HL-60(TB) leukemia
[27] = tested on: LOX IMVI melanoma
[28] = tested on: OVCAR-8 ovarian
[29] = tested on: ACHN renal
[30] = tested on: M14 melanoma
[31] = tested on: OVCAR-4 ovarian
[32] = tested on: SNB-75 CNS
[33] = tested on: SK-MEL-2 melanoma
[34] = tested on: DU-145 prostate
[35] = tested on: U251 CNS
[36] = tested on: SW-620 colon
[37] = tested on: UO-31 renal
[38] = tested on: NCI-H460 lung
[39] = tested on: HOP-62 NSCLC
[40] = tested on: HCC-2998 colon
[41] = tested on: OVCAR-5 ovarian
[42] = tested on: HCT-15 colon
[43] = tested on: CCRF-CEM leukemia
[44] = tested on: PC-3 prostate
[45] = tested on: HS 578T breast
[46] = tested on: UACC-257 melanoma
[47] = tested on: SF-539 CNS
[48] = tested on: CAKI-1 renal
[49] = tested on: SK-MEL-5 melanoma
[50] = tested on: TK-10 renal
[51] = tested on: K-562 leukemia
[52] = tested on: RPMI-8226 leukemia
[53] = tested on: MDA-MB-435
[54] = tested on: RXF 393 renal
[55] = tested on: MOLT-4 leukemia
[56] = tested on: NCI-H522 lung
[57] = tested on: UACC-62 melanoma
[58] = tested on: BT-549 breast
[59] = tested on: NCI-H226 lung

SMILES: CC1CN=C(N(C(=O)Nc2ccc(Cl)cc2)c2cccc(Cl)c2)S1 (centres undefined)
- TGI [1]: > 100 µM
- TGI [2]: > 100 µM
- TGI [3]: > 100 µM
- TGI [4]: > 100 µM
- TGI [5]: > 100 µM
- TGI [6]: > 100 µM
- TGI [7]: > 100 µM
- TGI [8]: > 100 µM
- TGI [9]: 91.8 µM
- TGI [10]: > 100 µM
- TGI [11]: > 100 µM
- TGI [12]: > 100 µM
- TGI [13]: 40.1 µM
- TGI [14]: > 100 µM
- TGI [15]: > 100 µM
- TGI [16]: > 100 µM
- TGI [17]: > 100 µM
- TGI [18]: 65.4 µM
- TGI [19]: > 100 µM
- TGI [20]: > 100 µM
- TGI [21]: > 100 µM
- TGI [22]: 83.9 µM
- TGI [23]: > 100 µM
- TGI [24]: > 100 µM
- TGI [25]: > 100 µM
- TGI [26]: > 100 µM
- TGI [27]: > 100 µM
- TGI [28]: > 100 µM
- TGI [29]: > 100 µM
- TGI [30]: > 100 µM
- TGI [31]: > 100 µM
- TGI [32]: > 100 µM
- TGI [33]: 44.9 µM
- TGI [34]: > 100 µM
- TGI [35]: > 100 µM
- TGI [36]: > 100 µM
- TGI [37]: > 100 µM
- TGI [38]: > 100 µM
- TGI [39]: > 100 µM
- TGI [40]: 84.6 µM
- TGI [41]: > 100 µM
- TGI [42]: > 100 µM
- TGI [43]: > 100 µM
- TGI [44]: > 100 µM
- TGI [45]: > 100 µM
- TGI [46]: > 100 µM
- TGI [47]: > 100 µM
- TGI [48]: > 100 µM
- TGI [49]: 33.7 µM
- TGI [50]: 62.1 µM

SMILES: CC1=C/C(=N\NS(=O)(=O)c2ccc([N+](=O)[O-])cc2)CC(C)(C)C1
- TGI [1]: > 100 µM
- TGI [2]: > 100 µM
- TGI [3]: > 100 µM
- TGI [4]: > 100 µM
- TGI [5]: > 100 µM
- TGI [6]: > 100 µM
- TGI [51]: > 100 µM
- TGI [7]: > 100 µM
- TGI [52]: > 100 µM
- TGI [8]: > 100 µM
- TGI [9]: > 100 µM
- TGI [10]: > 100 µM
- TGI [11]: > 100 µM
- TGI [13]: > 100 µM
- TGI [14]: > 100 µM
- TGI [15]: > 100 µM
- TGI [16]: > 100 µM
- TGI [17]: > 100 µM
- TGI [18]: 75.6 µM
- TGI [19]: > 100 µM
- TGI [20]: > 100 µM
- TGI [21]: > 100 µM
- TGI [22]: > 100 µM
- TGI [23]: > 100 µM
- TGI [53]: > 100 µM
- TGI [24]: > 100 µM
- TGI [25]: > 100 µM
- TGI [26]: > 100 µM
- TGI [27]: > 100 µM
- TGI [28]: > 100 µM
- TGI [29]: > 100 µM
- TGI [54]: > 100 µM
- TGI [55]: > 100 µM
- TGI [30]: > 100 µM
- TGI [33]: > 100 µM
- TGI [34]: > 100 µM
- TGI [35]: > 100 µM
- TGI [36]: > 100 µM
- TGI [37]: > 100 µM
- TGI [38]: > 100 µM
- TGI [56]: > 100 µM
- TGI [39]: > 100 µM
- TGI [40]: > 100 µM
- TGI [57]: > 100 µM
- TGI [41]: > 100 µM
- TGI [42]: > 100 µM
- TGI [43]: > 100 µM
- TGI [44]: > 100 µM
- TGI [46]: > 100 µM
- TGI [47]: > 100 µM
- TGI [48]: > 100 µM
- TGI [49]: > 100 µM
- TGI [50]: > 100 µM

SMILES: C#Cc1cccc(Nc2nc(C)nc3cc(NC(=O)CCl)ccc23)c1
- GI50 [1]: 0.533 µM
- TGI [1]: 1.37 µM
- GI50 [3]: 0.654 µM
- TGI [3]: 2.66 µM
- GI50 [4]: 3.39 µM
- TGI [4]: 6.86 µM
- GI50 [5]: 0.561 µM
- TGI [5]: 2.24 µM
- GI50 [6]: 4.13 µM
- TGI [6]: 8.15 µM
- GI50 [51]: 0.953 µM
- TGI [51]: 3.65 µM
- GI50 [7]: 3.17 µM
- TGI [7]: 7.69 µM
- GI50 [52]: 1.12 µM
- TGI [52]: 4.75 µM
- GI50 [8]: 1.29 µM
- TGI [8]: 4.29 µM
- GI50 [9]: 3.65 µM
- TGI [9]: 7.64 µM
- GI50 [10]: 0.836 µM
- TGI [10]: 4.05 µM
- GI50 [11]: 0.461 µM
- TGI [11]: 1.03 µM
- GI50 [12]: 1.06 µM
- TGI [12]: 4.15 µM
- GI50 [13]: 3.26 µM
- TGI [13]: 7.41 µM
- GI50 [14]: 2.7 µM
- TGI [14]: 6.06 µM
- GI50 [15]: 0.465 µM
- TGI [15]: 1.11 µM
- GI50 [16]: 3.42 µM
- TGI [16]: 12.5 µM
- GI50 [17]: 3.13 µM
- TGI [17]: 7.62 µM
- GI50 [18]: 0.67 µM
- TGI [18]: 1.89 µM
- GI50 [19]: 2.35 µM
- TGI [19]: 7.03 µM
- GI50 [20]: 2.62 µM
- TGI [20]: 6.82 µM
- GI50 [21]: 4.68 µM
- TGI [21]: 8.66 µM
- GI50 [22]: 0.896 µM
- TGI [22]: 3.58 µM
- GI50 [23]: 3.81 µM
- TGI [23]: 7.31 µM
- GI50 [53]: 1.49 µM
- TGI [53]: 4.75 µM
- GI50 [24]: 0.886 µM
- TGI [24]: 3.92 µM
- GI50 [25]: 3.7 µM
- TGI [25]: 7.41 µM
- GI50 [26]: 2.63 µM
- TGI [26]: 7.67 µM
- GI50 [27]: 0.424 µM
- TGI [27]: 0.95 µM
- GI50 [28]: 2.07 µM
- TGI [28]: 6.12 µM
- GI50 [29]: 2.98 µM
- TGI [29]: 6.67 µM
- GI50 [54]: 3.28 µM
- TGI [54]: 6.86 µM
- GI50 [55]: 0.719 µM
- TGI [55]: 2.27 µM
- GI50 [30]: 2.55 µM
- TGI [30]: 6.17 µM
- GI50 [31]: 1.83 µM
- TGI [31]: 6.05 µM
- GI50 [32]: 1.09 µM
- TGI [32]: 4.34 µM
- GI50 [33]: 3.9 µM
- TGI [33]: 7.9 µM
- GI50 [34]: 3.67 µM
- TGI [34]: 7.08 µM
- GI50 [35]: 0.641 µM
- TGI [35]: 1.7 µM
- GI50 [58]: 1.32 µM
- TGI [58]: 5.31 µM
- GI50 [36]: 0.659 µM
- TGI [36]: 1.93 µM
- GI50 [37]: 3.24 µM
- TGI [37]: 6.74 µM
- GI50 [59]: 3.06 µM
- TGI [59]: 8.25 µM
- GI50 [38]: 3.23 µM
- TGI [38]: 7.19 µM
- GI50 [56]: 0.454 µM
- TGI [56]: 0.92 µM
- GI50 [39]: 3.65 µM
- TGI [39]: 7.85 µM
- GI50 [40]: 3.79 µM
- TGI [40]: 7.76 µM
- GI50 [57]: 1.01 µM
- TGI [57]: 3.81 µM
- GI50 [41]: 0.953 µM
- TGI [41]: 5.38 µM
- GI50 [42]: 0.687 µM
- TGI [42]: 2.64 µM
- GI50 [43]: 0.638 µM
- TGI [43]: 2.22 µM
- GI50 [44]: 2.53 µM
- TGI [44]: 6.16 µM
- GI50 [45]: 2.8 µM
- TGI [45]: 10.2 µM
- GI50 [46]: 4.07 µM
- TGI [46]: 7.62 µM
- GI50 [47]: 3.34 µM
- TGI [47]: 6.6 µM
- GI50 [48]: 2.97 µM
- TGI [48]: 6.23 µM
- GI50 [49]: 3.56 µM
- TGI [49]: 7.04 µM
- GI50 [50]: 3.52 µM
- TGI [50]: 6.77 µM
